In article PMC8398766, “Do Small Molecules Activate the TrkB Receptor in the Same Manner as BDNF? Limitations of Published TrkB Low Molecular Agonists and Screening for Novel TrkB Orthosteric Agonists” (Pharmaceuticals, 2021):

Key:
in vivo = format: in vivo, BALB/c mice; settings: mouse, in vivo
Method: The animals were obtained from the Center of Experimental Medicine (University of Bialystok, Bialystok, Poland) and housed under standard laboratory conditions. Mice had unlimited access to water and food. All the procedures were conducted according to the guidelines of the local ethical commission (appl no. 06/2019, perm. no 10/2019). […] Four animals per time point were sacrificed at 10 min, 30 min, 1 h, 2 h, and 4 h after per os administration and 5 min, 10 min, 30 min, 1 h, and 2 h after i.v. administration. The blood (0.5 mL) was collected by heart puncture using probes with anticoagulants (K2EDTA). Plasma samples were obtained by blood centrifugation (15 min, 3000× g at 23 °C). The whole brain was dissected from the skull and washed with cold 0.9% NaCl on ice. The left hemisphere was quickly frozen in liquid nitrogen and stored at −80 °C for further bioanalytical analysis. From the right hemisphere, the hippocampus and frontal cortex were isolated, weighed, and stored at −80 °C after freezing in liquid nitrogen. Isolated structures were homogenized in N-PER cocktail (10 μL for every 1 mg of tissue) using a hand homogenizer, and then processed as described in Section 4.3.3.
For bioanalytical evaluation, brain samples were homogenized in water (3 mL for every 1 g of brain tissue). Plasma and brain samples were then prepared by precipitating proteins and extracting analytes using acetonitrile with the addition of the internal standard: 150 μL of extraction solution was added to 50 μL of biological material, mixed for 1 min and centrifuged (12,900 RPM, 4 min, 4 °C), and the supernatant was collected for analysis. Standard solutions including calibration standards and quality control samples were prepared by spiking 45 μL of biological material with 5 μL of standard working solution, adding 150 μL of extraction solution, and then mixing, centrifuging, and collecting the supernatant for analysis. The concentrations of analytes in the plasma and brain samples were determined using a UPLC-MS/MS instrument (Agilent Technologies) and chromatographic columns (Agilent Zorbax Eclipse 50 × 2.1 mm; 1.7 μm).

exTrkB = biological target: T1, exTrkB (Homo sapiens, UniProt Q16620); experiment: MST binding affinity (Kd) determination
T1 construct: human TrkB receptor (exTrkB), residues 1−430, was cloned into the pCMV2 expression vector; made in house; host or cells: ExpiCHO-S cells
T1 sequence (Q16620 32-430): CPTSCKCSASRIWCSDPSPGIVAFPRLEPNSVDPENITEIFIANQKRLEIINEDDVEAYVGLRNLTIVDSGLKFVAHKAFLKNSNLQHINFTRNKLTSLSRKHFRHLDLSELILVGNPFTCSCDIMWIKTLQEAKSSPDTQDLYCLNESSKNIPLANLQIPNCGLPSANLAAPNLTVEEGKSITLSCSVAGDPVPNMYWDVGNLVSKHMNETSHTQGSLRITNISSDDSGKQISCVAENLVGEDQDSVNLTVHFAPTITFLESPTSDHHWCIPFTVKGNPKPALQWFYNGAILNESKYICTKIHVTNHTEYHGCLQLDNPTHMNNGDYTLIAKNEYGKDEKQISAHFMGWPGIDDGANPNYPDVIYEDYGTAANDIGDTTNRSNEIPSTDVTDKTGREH
Method: The gene encoding the extracellular domain of the human TrkB receptor (exTrkB), residues 1−430, was cloned into the pCMV2 expression vector. Protein expression was performed in suspension-cultivated mammalian ExpiCHO-S cells using the ExpiFectamine (Thermo Scientific, Thermo Fisher Scientific, Waltham, MA, USA) transfection reagent. The secreted protein was purified using a four-step protocol. Clarified culture medium was precipitated with ammonium sulfate added to a final concentration of 1.5 M and centrifuged (235,000× g, 60 min at 4 °C). The supernatant after centrifugation was applied on a HiTrap Phenyl column (GE Healthcare, Chicago, IL, USA) equilibrated with buffer A (25 mM Tris, 1 mM DTT; pH 7.5) with 1.5 M ammonium sulfate. Bound proteins were eluted with a linear gradient of buffer A. The eluted proteins were dialyzed overnight in buffer A and loaded on a CaptoQ ImpRes column (GE Healthcare) equilibrated with buffer A with 50 mM NaCl. The bound proteins were eluted with a linear gradient of buffer A with 1 M NaCl. The fractions containing exTrkB protein were pooled, and MnCl2 and CaCl2 (1mM final concentration each) were added. The sample was purified on a HiTrap Con A 4B column (GE Healthcare) equilibrated with buffer B (25 mM Tris, 0.5 M NaCl, 1 mM MnCl2, 1 mM CaCl2; pH 7.5) and eluted with buffer C (25 mM Tris, 0.1 M NaCl, 0.4 M α-D-glucopyranoside; pH 6.5). To improve the protein recovery, buffer C flow was paused nine times during elution. The eluted fractions were concentrated and purified by size-exclusion chromatography on a HiLoad 16/600 Superdex 200 column (GE Healthcare) in buffer A with 0.5 M NaCl. The protein samples were concentrated to 1 mg/mL, and buffer was exchanged (PBS; pH 7.4). Samples were frozen in liquid nitrogen and stored at −80 °C. The protein purity was estimated by SDS–PAGE followed by Coomassie Brilliant Blue staining. The protein concentration was determined from the absorption at 280 nm using an UV NanoDrop 1000 spectrophotometer (Thermo Scientific).
The exTrkB was labeled with a Monolith Protein Labeling Kit RED-NHS 2nd Generation (NanoTemper Technologies GmbH, Munich, Germany) according to the manufacturer’s protocol. The labelling efficiency was always determined spectrophotometrically with NanoPhotometer® NP80 (Impel) in line with the manufacturer’s recommendations. Labelled exTrkB protein was aliquoted and stored at −80 °C to avoid repeated freeze–thaw cycles. Before analysis, the exTrkB protein was thawed on ice and diluted with MST buffer (50 mM Tris pH = 8; 150 mM NaCl; 10 mM MgCl2; 0.1% Tween20) to the desired concentration.
For primary screening (single-point MST experiments for signal amplitude determination), each of the 987 screened compounds were diluted in MST buffer + 0.1% Tween20 to a final concentration of 0.5 mM. The tested compounds were mixed with exTrkB solution (the final concentration of exTrkB was 20 nM) and centrifuged (10,000× g, 4 min at 4 °C) to eliminate protein and compound aggregates. Before loading to capillaries (Monolith NT.115 Capillaries, NanoTemper Technologies GmbH), the samples were incubated for 5 min at 25 °C and then placed into the MST apparatus (Monolith, NanoTemper Technologies GmbH). The experiments were performed using nano-blue excitation, LED light adjusted to 20% excitation power, and MST power set to medium, and the fluorescence signal during thermophoresis was detected after 30 s. Single-point MST experiments were performed by the determination of the amplitude signal between the unbound and bound state between the molecule and exTrkB, which was analyzed using the MO.Control Software version 1.6 (NanoTemper Technologies GmbH). A reference sample containing only exTrkB and the equivalent DMSO concentration (v/v) was included in each individual MST experiment. At least three technical replicates were prepared for each of the tested compounds. A binding affinity study was performed for 113 of the selected compounds at 16 concentration points. […]

TrkB receptor = biological target: T2, TrkB receptor (Rattus norvegicus, UniProt Q63604); experiment: ELFI TrkB phosphorylation, orthosteric agonist mode, SN56 T48 cell line; format: cell-based; settings: 0.125–100 μM, 15 min
T2 construct: host or cells: SN56 T48 cell line
T2 sequence (Q63604 32-821): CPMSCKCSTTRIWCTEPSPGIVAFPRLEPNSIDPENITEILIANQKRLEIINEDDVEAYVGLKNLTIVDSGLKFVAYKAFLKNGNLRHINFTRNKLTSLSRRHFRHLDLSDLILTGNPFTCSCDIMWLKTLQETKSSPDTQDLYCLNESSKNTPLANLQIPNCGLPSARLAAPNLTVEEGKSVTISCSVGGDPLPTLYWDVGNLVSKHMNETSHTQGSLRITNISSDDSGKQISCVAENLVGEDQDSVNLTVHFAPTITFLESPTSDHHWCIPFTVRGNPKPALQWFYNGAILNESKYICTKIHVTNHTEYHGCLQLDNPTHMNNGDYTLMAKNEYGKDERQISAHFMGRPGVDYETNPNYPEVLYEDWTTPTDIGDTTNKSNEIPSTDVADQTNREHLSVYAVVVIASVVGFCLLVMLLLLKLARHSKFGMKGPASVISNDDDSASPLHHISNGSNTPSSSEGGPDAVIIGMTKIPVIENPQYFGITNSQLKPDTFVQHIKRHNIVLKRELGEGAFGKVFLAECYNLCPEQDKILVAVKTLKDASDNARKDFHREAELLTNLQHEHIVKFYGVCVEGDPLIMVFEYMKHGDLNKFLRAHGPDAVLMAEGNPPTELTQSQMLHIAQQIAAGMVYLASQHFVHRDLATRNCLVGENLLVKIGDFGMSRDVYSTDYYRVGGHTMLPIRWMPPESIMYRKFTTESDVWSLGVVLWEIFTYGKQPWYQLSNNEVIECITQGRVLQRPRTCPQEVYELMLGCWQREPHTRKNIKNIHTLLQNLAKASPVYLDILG
Method: The SN56 T48 cell line with stable overexpression of the TrkB receptor was purchased from Emory University (Atlanta, GA, USA) and cultivated according to the protocol described in Jang et al., 2010 [12]. The cell lines were cultivated with the following reagents: DMEM High Glucose, fetal bovine serum (FBS), Penicillin-Streptomycin Solution 100×, and Trypsin-EDTA 1×; all were purchased from Biowest, and G418 was from ThermoFisher Scientific. For the ELFI experiments, cells were seeded (8000/well) on a PDL-treated 96-well plate (BioCoat™, Corning Inc., Corning, NY, USA) and 6-well plate (400,000/well) for lysate collection and immunoblot analysis.
In the orthosteric agonist mode experiments, starved cells (5 h) were treated with compounds (0.125–100 μM; volume, 100 μL/well) or BDNF (0.01–10 nM; volume, 100 μL/well) dissolved in culture medium. In the allosteric modulation mode experiments, starved cells (5 h) were treated with final compound concentrations of 3, 10, and 30 μM; volume, 50 μL/well) in the presence of a rising concentration of BDNF (final concentration in well, 0.15–5 nM; volume, 50 μL/well). Corresponding treatment with DMSO (v/v) was performed for a control. Cells were treated for 15 min in both the orthosteric and allosteric modulation mode experiments.
The analysis of TrkB receptor activation was performed using the ELFI method adapted from Boltayev et al. (2017) with some modifications. After compound treatment, experiments were stopped by fixing cells with 10% buffered formalin (Kolchem, Lodz, Poland) for 20 min (volume, 100 μL/well). Afterwards, cells were permeabilized with washing buffer (TBS+ 0.1% Tween20) for 15 min, and endogenous peroxidases were quenched by 20 min of incubation with 1% H2O2 dissolved in TBS (each solution: volume, 100 μL/well). Epitopes were blocked with 10% BSA (Biowest) dissolved in washing buffer for 2 h (volume, 100 μL/well) and incubated with anti-pTrkB (Tyr707) primary antibody (Cell Signaling Technology, Danvers, MA, USA) diluted in washing buffer (1:500; overnight at 4 °C; volume, 100 μL/well). After repeated washing, cells were incubated with HRP-linked anti-rabbit antibody (Cell Signaling Technology) for 2 h (1:1000; RT; volume, 100 μL/well) and washed. The cells were then incubated with 100 μL of ImmunoCruz™ Western Blotting Luminol (Santa Cruz Biotechnology, Dallas, TX, USA) for 1 min in the dark, and the signals were measured using a microplate luminometer (VICTOR Light 1420-060, PerkinElmer®, Waltham, MA, USA). For non-specific binding, cells were treated, with the exception of primary antibody.

[1] = Chemical stability pH 7.4; format: physicochemical; settings: pH = 7.4, 4 h
PAMPA = settings: for PAMPA: 10 μM, 4 h
Caco-2 monolayer = experiment: Caco-2 passive permeability; settings: for Papp,AB: Caco-2, apical to basal; for Papp,AB / Papp,BA: 2 h; for Papp,BA: Caco-2, basal to apical
[2] = Metabolic stability in human liver microsomes; settings: for Clint HLM: 1 μM, phase I; for Metabolic stability in HLM (classification): compared with verapamil
[3] = Metabolic stability in mouse liver microsomes; settings: for Clint MLM: 1 μM, phase I; for Metabolic stability in MLM (classification): compared with verapamil
[4] = pH 7.4
[5] = Caco-2 passive permeability; settings: human, Caco-2, with 5 μM elacridar and 20 μM cyclosporine A

Compound | Binding to the exTrkB receptor (exTrkB) | Orthosteric activity (induction of TrkB phosphorylation) (TrkB receptor) | Chemical Stability [% of Degradation] [1] | PAMPA (PAMPA) | Papp,AB (Caco-2 monolayer) | Papp,BA (Caco-2 monolayer) | Clint HLM [2] [μL·min^−1·mgprotein^−1] | Metabolic stability in HLM (classification) [2] | Clint MLM [3] [μL·min^−1·mgprotein^−1] | Metabolic stability in MLM (classification) [3] | Kinetic Solubility [4] [µM] | also measured
7-hydroxy-8-methoxyflavone (7H8M-flavone) and 8-hydroxy-7-methoxyflavone (8H7M-flavone) [7H8M-flavone 8H7M-flavone] | – | – | – | – | – | – | – | – | – | – | – | C brain, individual mice (in vivo; 50 mg/kg): < LLQ; C brain, individual mice (in vivo; iv, 1 mg/kg): < LLQ; C plasma, individual mice (in vivo; iv, 1 mg/kg): < LLQ; Time of maximal plasma concentration (in vivo; iv, 1 mg/kg): 5 min; Time of maximal plasma concentration (in vivo; po, 50 mg/kg): 10 min
CN(C)c1ccc(-c2cc(=O)c3ccc(O)c(O)c3o2)cc1 [4′-dimethylamino-7,8-DHF] | not observed | did not observe any orthosteric activity | 1.31% | 15.5 10^−6·cm/s | 15.61 10^−6·cm/s | 9.03 10^−6·cm/s | 175.7 | highly unstable | 365.1 | highly unstable | – | Permeability in PAMPA assay (good permeability) (PAMPA): > 10^−6 cm/s; Permeability in Caco-2 system (good permeability) (Caco-2 monolayer): > 10^−6 cm/s
NCCCC[C@H](NC(=O)[C@H](CO)NC(=O)CCC(=O)O)C(=O)NCCCCCCNC(=O)[C@H](CCCCN)NC(=O)[C@H](CO)NC(=O)CCC(=O)O [GSB-106, [OH-Suc-Ser-Lys-NH-(CH2)3-]2] | not observed | did not observe any orthosteric activity | Stable | 0.85 10^−6·cm/s | – | – | – | instability of this compound in the experimental system | – | instability of this compound in the experimental system | 152.7 | –
O=C1NCCCC1C(=O)NCCc1c[nH]c2ccc(O)cc12 (stereo not shown) [HIOC] | not observed | did not observe any orthosteric activity | Stable | 1.24 10^−6·cm/s | 1.11 10^−6·cm/s | 2.29 10^−6·cm/s | – | very good metabolic stability | 2.1 | very good metabolic stability | 437 | –
COc1ccc(-c2cc3cccc(O)c3c(=O)o2)cc1 [Isocumarin, 8-hydroxy-3-(4′-methoxyphenyl)-isocumarin] | not observed | did not observe any orthosteric activity | Stable | 0.22 10^−6·cm/s | – | – | – | highly unstable | – | highly unstable | – | Papp A→B at 2 h [5]: 1.6 ×10⁻⁶ cm/s; Papp B→A at 2 h [5]: 2.18 ×10⁻⁶ cm/s; microsomal CLint at 1 μM ([2]; human, liver microsomes): 781 µL/min/mg; microsomal CLint at 1 μM ([3]; mouse, liver microsomes): 407 µL/min/mg
OCCN(CCO)c1ccc(C(c2ccc(Cl)cc2)c2ccc(N(CCO)CCO)cc2)cc1 [LM22-B10] | not observed | did not observe any orthosteric activity | 4.18% | 2.36 10^−6·cm/s | 6.47 10^−6·cm/s | 4.97 10^−6·cm/s | 29 | moderately stable | 4.8 | stable | – | Kd (exTrkB; non-binding compounds given as 0): 83 µM
